Molecular target: 3-beta-hydroxysteroid-Delta(8),Delta(7)-isomerase (Homo sapiens, UniProt Q15125)
Assay: Binding affinity to emopamil binding protein

Sequence of 3-beta-hydroxysteroid-Delta(8),Delta(7)-isomerase (Q15125 whole entry): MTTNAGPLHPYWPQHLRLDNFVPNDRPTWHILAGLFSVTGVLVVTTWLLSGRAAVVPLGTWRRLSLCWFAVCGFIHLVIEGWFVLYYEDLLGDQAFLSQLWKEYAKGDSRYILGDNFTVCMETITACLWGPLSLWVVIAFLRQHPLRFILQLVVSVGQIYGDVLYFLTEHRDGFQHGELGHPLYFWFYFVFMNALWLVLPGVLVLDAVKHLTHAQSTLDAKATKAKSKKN

Ki: 1.72 nM
Compound: COc1cc(CCN2CCN(CCCc3ccccc3)CC2)ccc1O[11CH3]
